Source: US9365574B2, “Soluble guanylate cyclase activators” (Merck Sharp & Dohme Corp., priority 2010, dated 2016)

What was measured:
[1] = target: T1, sGC (Homo sapiens, UniProt Q02108+Q02153); assay: Cell-based sGC Functional Assay (CASA Assay), cGMP generation in CHO-K1/sGC cells; conditions: without ODQ incubation; for EC50: read-out: inflection points (IP)
T1 construct: expressed in transfected cells; host or cells: CHO-K1 (clone #7, CHO-K1/sGC)
T1 sequence (Q02108 1-690): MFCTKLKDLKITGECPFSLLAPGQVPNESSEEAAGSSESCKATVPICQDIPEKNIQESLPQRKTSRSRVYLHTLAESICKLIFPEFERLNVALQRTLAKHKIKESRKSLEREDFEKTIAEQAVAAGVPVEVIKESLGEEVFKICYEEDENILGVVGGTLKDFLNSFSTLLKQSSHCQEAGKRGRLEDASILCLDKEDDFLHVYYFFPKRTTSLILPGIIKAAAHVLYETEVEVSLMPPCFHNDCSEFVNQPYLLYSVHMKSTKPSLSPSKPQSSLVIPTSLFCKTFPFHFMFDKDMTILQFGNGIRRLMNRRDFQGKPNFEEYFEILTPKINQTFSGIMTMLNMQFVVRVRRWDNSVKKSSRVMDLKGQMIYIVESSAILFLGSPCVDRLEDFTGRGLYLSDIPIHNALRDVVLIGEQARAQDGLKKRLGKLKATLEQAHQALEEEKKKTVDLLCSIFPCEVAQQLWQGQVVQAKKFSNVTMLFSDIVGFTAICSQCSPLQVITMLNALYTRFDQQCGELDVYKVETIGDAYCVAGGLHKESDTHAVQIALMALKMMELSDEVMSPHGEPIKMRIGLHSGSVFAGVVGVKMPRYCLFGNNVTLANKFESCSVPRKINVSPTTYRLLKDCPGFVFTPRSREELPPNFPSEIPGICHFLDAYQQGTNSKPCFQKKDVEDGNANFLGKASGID
T1 sequence (Q02153 1-619): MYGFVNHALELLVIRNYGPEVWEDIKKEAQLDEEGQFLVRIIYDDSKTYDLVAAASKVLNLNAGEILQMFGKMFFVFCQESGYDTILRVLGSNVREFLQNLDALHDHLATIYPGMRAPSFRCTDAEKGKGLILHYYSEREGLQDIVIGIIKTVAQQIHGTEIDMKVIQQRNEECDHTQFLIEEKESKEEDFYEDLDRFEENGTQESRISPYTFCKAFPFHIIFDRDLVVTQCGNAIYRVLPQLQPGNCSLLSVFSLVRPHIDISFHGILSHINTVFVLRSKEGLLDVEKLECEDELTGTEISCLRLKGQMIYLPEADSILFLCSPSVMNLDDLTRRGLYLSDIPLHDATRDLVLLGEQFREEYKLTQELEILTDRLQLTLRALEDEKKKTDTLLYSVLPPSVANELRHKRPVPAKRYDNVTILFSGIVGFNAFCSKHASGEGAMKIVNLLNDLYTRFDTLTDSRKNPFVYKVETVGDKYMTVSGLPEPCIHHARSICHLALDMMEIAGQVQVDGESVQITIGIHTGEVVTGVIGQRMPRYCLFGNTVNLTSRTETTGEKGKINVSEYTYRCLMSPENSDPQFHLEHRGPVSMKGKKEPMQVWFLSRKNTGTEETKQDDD
From the text: Cell-based sGC Functional Assay (CASA Assay)
sGC is a heme-containing enzyme that converts GTP to secondary messenger cGMP. Increases in cGMP levels affect several physiological processes including vasorelaxation through multiple downstream pathways. […] Heme-dependent activators (HDAs) preferentially activate sGC containing a ferrous heme group. To determine the effect of sGC activators on enzyme activity, the CASA assay was developed to monitor the generation of cGMP in a cell line that stably expresses the heterodimeric sGC protein.
A CHO-K1 cell line stably expressing the sGC a up heterodimer was generated using a standard transfection protocol. CHO-K1 cells were transfected with plasmids pIREShyghsGCα1 and pIRESneo-hsGCβ1 simultaneously using FUGENE reagent. Clones that stably express both subunits were selected with hygromycin and neomycin for weeks. Clone #7 was chosen for the assay and was designated CHO-K1/sGC. CHO-K1/sGC cells were maintained in F-K12 medium containing 10% heat-inactivated Fetal Bovine Serum (FBS), 100 μg/mL penicillin/streptomycin, 0.5 mg/mL hygromycin and 0.25 mg/mL G418. On the day of the assay, cells were harvested in EBSS Assay Buffer (EAB) containing 5 mM MgCl2, 10 mM HEPES (4-(2-hydroxyethyppiperazine-1-ethanesulfonic acid) and 0.05% BSA (bovine serum albumin) and cell density was adjusted to 2×10^6/mL with EAB. IBMX (3-isobutyl-1-methylxanthin, 0.5 mM) was added to inhibit degradation of cGMP. Compounds were diluted from DMSO stock solutions and added to the assay at a final DMSO concentration of 1%. Cells were incubated with compounds in the presence and absence of 10 μM of 1H-(1,2,4)oxadiazolo(4,3-a) quinoxalin-1-one (ODQ) for 1 hr at 37° C. At the end of the incubation period, the reaction was terminated and the cells were lysed. The level of intracellular cGMP was determined using an HTRF-based assay kit (CisBio, 62GM2PEC), which detects the displacement of a fluorescence labeled cGMP from its specific antibody. The amount of cGMP was plotted against compound concentration in PRISM software and the IP and maximum fold induction over DMSO control were derived from the plot.

[2] = tested on: Spontaneously hypertensive rats (SHR); assay: Acute Efficacy in Spontaneously Hypertensive Rats (SHR), telemetry blood pressure; type: in vivo, rat
In short: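 Male SHR with aortic telemetry catheters, 14-day recovery, conscious and freely moving; single oral gavage in 10% transcutol/20% Cremophor/70% water. BP sampled 30 s every 10 min, hourly averages minus prior-day vehicle baseline; value is maximum peak SBP decrease at stated mg/kg PO dose.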

| Maximum fold induction over DMSO control [1] | EC50 [1] [nM] | SMILES | Maximum peak decrease of systolic blood pressure (SBP) in SHR, Category ([2]; single oral dose 0.3 mpk P.O.) | further results |
| --- | --- | --- | --- | --- |
| 133 | 114 | CC1(c2ccccc2)C(=O)Nc2nc(-n3nc(CCC(F)(F)C(F)(F)F)c4cc(Cl)ccc43)nc(N)c21 (centres unmarked) [Example 2, 4-Amino-2-[5-Chloro-3-(3,3,4,4,4-Pentafluorobutyl)-1H-Indazol-1-yl]-5-Methyl-5-Phenyl-5,7-Dihydro-6H-Pyrrolo[2,3-D]Pyrimidin-6-One] |  |  |
| 156 | 212 | CC1(c2ccccc2)C(=O)Nc2nc(-n3nc(CCC(F)(F)C(F)(F)F)c4cc(F)ccc43)nc(N)c21 (centres unmarked) [Example 26, 4-amino-2-[5-fluoro-3-(3,3,4,4,4-pentafluorobutyl)-1H-indazol-1-yl]-5-methyl-5-phenyl-5,7-dihydro-6H-pyrrolo[2,3-d]pyrimidin-6-one] |  |  |
| 225 | 50 | CC1(c2ccccc2)C(=O)Nc2nc(-c3nn(CCC(F)(F)C(F)(F)F)c4cc(Cl)ccc34)nc(N)c21 (centres unmarked) [Example 58, 4-Amino-2-[6-Chloro-1-(3,3,4,4,4-Pentafluorobutyl)-1H-Indazol-3-yl]-5-Methyl-5-Phenyl-5,7-Dihydro-6H-Pyrrolo[2,3-D]Pyrimidin-6-One] |  |  |
| 126 | 46 | CC1(c2ccccc2)C(=O)Nc2nc(-c3nn(CCC(F)(F)C(F)(F)F)c4cc(F)ccc34)nc(N)c21 (centres unmarked) [Example 70, 4-amino-2-[6-fluoro-1-(3,3,4,4,4-pentafluorobutyl)-1H-indazol-3-yl]-5-methyl-5-phenyl-5,7-dihydro-6H-pyrrolo[2,3-d]pyrimidin-6-one] |  |  |
| 150 | 258 | CC1(c2ccc(F)cc2)C(=O)Nc2nc(-c3nc(CCC(F)(F)C(F)(F)F)n4cc(Cl)ccc34)nc(N)c21 (centres unmarked) [Example 105, 4-Amino-2-[6-Chloro-3-(3,3,4,4,4-Pentafluorobutyl)Imidazo[1,5-A]Pyridin-1-yl]-5-(4-Fluorophenyl)-5-Methyl-5,7-Dihydro-6H-Pyrrolo[2,3-D]Pyrimidin-6-One] |  |  |
| 52 | 139 | CC1(c2ccccc2)C(=O)Nc2nc(-c3nc(CCC(F)(F)C(F)(F)F)n4cc(Cl)ccc34)nc(N)c21 (centres unmarked) [Example 136, 4-amino-2-[6-chloro-3-(3,3,4,4,4-pentafluorobutyl)imidazo[1,5-a]pyridin-1-yl]-5-methyl-5-phenyl-5,7-dihydro-6H-pyrrolo[2,3-d]pyrimidin-6-one] |  |  |
|  |  | CNc1nc(-c2nn(CCC(F)(F)F)c3ncccc23)nc2c1C(C)(C(=O)NC1CC1)C(=O)N2 (centres unmarked) [Example 263, N-cyclopropyl-5-methyl-4-(methylamino)-6-oxo-2-[1-(3,3,3-trifluoropropyl)-1H-pyrazolo[3,4-b]pyridin-3-yl]-6,7-dihydro-5H-pyrrolo[2,3-d]pyrimidine-5-carboxamide] | A (Category A=SBP in SHRs<25 mmHg) |  |
|  |  | CNc1nc(-c2nn(CCCC(F)(F)F)c3ncccc23)nc2c1C(C)(C(=O)NC1CC1)C(=O)N2 (centres unmarked) [Example 264, N-cyclopropyl-5-methyl-4-(methylamino)-6-oxo-2-[1-(4,4,4-trifluorobutyl)-1H-pyrazolo[3,4-b]pyridin-3-yl]-6,7-dihydro-5H-pyrrolo[2,3-d]pyrimidine-5-carboxamide] | B (Category B=SBP in SHRs 25-40 mmHg) |  |
|  |  | CN(C)C(=O)C1(C)C(=O)Nc2nc(-n3nc(CCC(F)(F)C(F)(F)F)c4cc(Cl)ccc43)nc(N)c21 (centres unmarked) [Example 265, 4-amino-2-[5-chloro-3-(3,3,4,4,4-pentafluorobutyl)-1H-indazol-1-yl]-N,N,5-trimethyl-6-oxo-6,7-dihydro-5H-pyrrolo[2,3-d]pyrimidine-5-carboxamide] |  | Maximum peak decrease of systolic blood pressure (SBP) in SHR, Category ([2]; single oral dose 1 mpk P.O.): C (Category C=SBP in SHRs>40 mmHg) |
|  |  | CC1(C(=O)NC2CC2)C(=O)Nc2nc(-n3nc(CCC(F)(F)C(F)(F)F)c4ncccc43)nc(N)c21 (centres unmarked) [Example 266, 4-amino-N-cyclopropyl-5-methyl-6-oxo-2-[3-(3,3,4,4,4-pentafluorobutyl)-1H-pyrazolo[4,3-b]pyridin-1-yl]-6,7-dihydro-5H-pyrrolo[2,3-d]pyrimidine-5-carboxamide] | C (Category C=SBP in SHRs>40 mmHg) |  |
|  |  | CC1(C(=O)NC2CC2)C(=O)Nc2nc(-c3nn(CCC(F)(F)C(F)(F)F)c4ncc(Cl)cc34)nc(N)c21 (centres unmarked) [Example 267, 4-amino-2-[5-chloro-1-(3,3,4,4,4-pentafluorobutyl)-1H-pyrazolo[3,4-b]pyridin-3-yl]-N-cyclopropyl-5-methyl-6-oxo-6,7-dihydro-5H-pyrrolo[2,3-d]pyrimidine-5-carboxamide] | B (Category B=SBP in SHRs 25-40 mmHg) |  |
|  |  | CC1(C(=O)NC2CC2)C(=O)Nc2nc(-c3nn(CCC(F)(F)C(F)(F)F)c4ncc(Cl)cc34)nc(N)c21 (centres unmarked) [Example 268, 4-amino-2-[5-chloro-1-(3,3,4,4,4-pentafluorobutyl)-1H-pyrazolo[3,4-b]pyridin-3-yl]-N-cyclopropyl-5-methyl-6-oxo-6,7-dihydro-5H-pyrrolo[2,3-d]pyrimidine-5-carboxamide] |  | Maximum peak decrease of systolic blood pressure (SBP) in SHR, Category ([2]; single oral dose 0.1 mpk P.O.): B (Category B=SBP in SHRs 25-40 mmHg) |
|  |  | Cc1nnc(C2(C)C(=O)Nc3nc(-c4nn(CCC(F)(F)C(F)(F)F)c5ncc(Cl)cc45)nc(N)c32)o1 (centres unmarked) [Example 269, 4-amino-2-[5-chloro-1-(3,3,4,4,4-pentafluorobutyl)-1H-pyrazolo[3,4-b]pyridin-3-yl]-5-methyl-5-(5-methyl-1,3,4-oxadiazol-2-yl)-5,7-dihydro-6H-pyrrolo[2,3-d]pyrimidin-6-one] | C (Category C=SBP in SHRs>40 mmHg) |  |
|  |  | CC1(C(N)=O)C(=O)Nc2nc(-c3nc(CCC(F)(F)C(F)(F)F)c4ccccn34)nc(N)c21 (centres unmarked) [Example 270, 4-amino-5-methyl-6-oxo-2-[1-(3,3,4,4,4-pentafluorobutyl)imidazo[1,5-a]pyridin-3-yl]-6,7-dihydro-5H-pyrrolo[2,3-d]pyrimidine-5-carboxamide] | A (Category A=SBP in SHRs<25 mmHg) |  |
